Measurements reported in US20250339461A1 (priority 2024, published 2025).
Entries after “also recorded” stand apart in the source; their conditions may differ.

Columns and labels:
[1] = human, in vivo
[2] = test system: migraine headache; conditions: human, in vivo
[3] = test system: neuropathic facial pain; set-up: species or system human; conditions: in vivo
[4] = test system: nausea; conditions: human, in vivo

With `CN(C)CCc1c[nH]c2ccc(Cn3cncn3)cc12` [rizatriptan] the “adverse effect when tried for rescue” value [1] was “severe elevation in their blood pressure”, the benefit for rescue [2] was “no longer effective” and the “share of the time it worked for rescue” value [2] was “approximately 20 % of the time”.

In the case of `CC1(C)O[C@@H]2[C@@H](CO[C@@]3(COS(N)(=O)=O)OC(C)(C)O[C@@H]23)O1` [topiramate], the tolerability [1] is reported as “could not tolerate the side effects”, the “benefit as prophylactic agent for migraines” value (shortened to “benefit as prophylactic agent”) [2] is reported as “without benefit” and the “benefit for migraine prophylaxis” value [2] is reported as “helped some”. For the same molecule, the “benefit for migraine prophylaxis, history at first visit” value (from here on “benefit … at first visit”) [2] was “no benefit” and the “frequency of severe migraine headaches on treatment” value [2] was 5 to 7 days a week.

With `CCCCN1CCCCC1C(=O)Nc1c(C)cccc1C` (centres unmarked) [bupivacaine] the “pain after local anesthetic injection along superior nuchal line” value [2] was “substantially improved for two days”.

For `CN(C)CCc1c[nH]c2ccc(C[C@H]3COC(=O)N3)cc12` [zolmitriptan nasal spray, zolmitriptan], the benefit for rescue [2] was “without benefit”.

For `NCC1(CC(=O)O)CCCCC1` [gabapentin], the “benefit as prophylactic agent” value [2] was “without benefit”, the “benefit … at first visit” value [2] was “no benefit” and the “benefit from previous treatment” value [2] was “no benefit”.

In the case of `COC1=C(OC)C(=O)C(C/C=C(\C)CC/C=C(\C)CC/C=C(\C)CC/C=C(\C)CC/C=C(\C)CC/C=C(\C)CC/C=C(\C)CC/C=C(\C)CC/C=C(\C)CCC=C(C)C)=C(C)C1=O` [coenzyme Q10], the “benefit as prophylactic agent” value [2] is reported as “without benefit”, the benefit for prophylaxis [2] is reported as “no benefit” and the “effect on frequency of headaches after 4-6 weeks” value [2] is reported as “did not affect the frequency”.

With `CCCCc1nc(Cl)c(CO)n1Cc1ccc(-c2ccccc2-c2nn[nH]n2)cc1` [losartan] the “benefit … at first visit” value [2] was “no benefit”.

In the case of `CC(C)Cc1ccc(C(C)C(=O)O)cc1` (centres unmarked) [ibuprofen], the “benefit from previous treatment” value [2] is reported as “no benefit”.

For `COc1cccc(C2(O)CCCCC2CN(C)C)c1` (centres unmarked) [tramadol], the benefit for rescue [2] was “partially helpful; also recorded: without benefit”.

With `Clc1ccc2nsnc2c1NC1=NCCN1` [tizanidine] the “benefit as prophylactic agent” value [2] was “without benefit” and the benefit for prophylaxis [2] was “partially helpful”.

In the case of `NCC(CC(=O)O)c1ccc(Cl)cc1` (centres unmarked) [baclofen], the “benefit as prophylactic agent” value [2] is reported as “without benefit”, the “benefit … at first visit” value [2] is reported as “no benefit” and the “benefit from previous treatment” value [2] is reported as “no benefit”.

With `Cc1cc2nc3c(=O)[nH]c(=O)nc-3n(C[C@H](O)[C@H](O)[C@H](O)CO)c2cc1C` [riboflavin] the “effect on frequency of headaches after 4-6 weeks” value [2] was “did not affect the frequency”.

For `C[C@@H]1[C@H](c2ccccc2)C[C@H](NC(=O)c2cnc3c(c2)C[C@@]2(C3)C(=O)Nc3ncccc32)C(=O)N1CC(F)(F)F` [Ubrelvy], the benefit for rescue [2] was “not helpful”.

For `Oc1ccc2c(c1)[C@@]13CCCC[C@@]1(O)[C@@H](C2)N(CC1CCC1)CC3` [butorphanol], the benefit for rescue [2] was “without benefit”.

With `CC(C)C[C@H](CN)CC(=O)O` [pregabalin] the “effect on comorbid neuropathic facial pain” value [3] was “treated effectively” and the “benefit as prophylactic agent” value [2] was “without benefit”.

In the case of `NC(=O)N1c2ccccc2C=Cc2ccccc21` [carbamazepine], the “benefit as prophylactic agent” value [2] is reported as “without benefit”.

In the case of `C[C@]12C=CC(=O)C=C1CC[C@@H]1[C@@H]2C(=O)C[C@@]2(C)[C@H]1CC[C@]2(O)C(=O)CO` [prednisone], the “benefit as prophylactic agent” value [2] is reported as “without benefit”.

For `Cc1nccn1CC1CCc2c(c3ccccc3n2C)C1=O` (centres unmarked) [ondansetron], the effect on nausea [4] was “at times helpful for nausea”.

With `O=C(O)Cc1ccccc1Nc1c(Cl)cccc1Cl` [diclofenac] the benefit for rescue [2] was “without benefit”.

For `CNS(=O)(=O)Cc1ccc2[nH]cc(CCN(C)C)c2c1` [sumatriptan tablet, sumatriptan], the benefit for rescue [2] was “not helpful; also recorded: partially helpful; also recorded: without benefit”.

For `CCCC(CCC)C(=O)O` [valproic acid], the “benefit as prophylactic agent” value [2] was “without benefit”.

For `CN(C)CCC=C1c2ccccc2CCc2ccccc21` [amitriptyline], the “benefit as prophylactic agent” value [2] was “without benefit”.

With `NS(=O)(=O)Cc1noc2ccccc12` [zonisamide] the “benefit as prophylactic agent” value [2] was “without benefit”.

With `CC(C)NCC(O)COc1cccc2ccccc12` (centres unmarked) [propranolol] the tolerability [1] was “caused dizziness”, the “benefit as prophylactic agent” value [2] was “without benefit” and the “benefit from previous treatment” value [2] was “no benefit”.

With `CN1CCC[C@@H]1Cc1c[nH]c2ccc(CCS(=O)(=O)c3ccccc3)cc12` [eletriptan] the benefit for rescue [2] was “consistently effective”.

With `CCN(CC)CCNC(=O)c1cc(Cl)c(N)cc1OC` [metoclopramide] the tolerability [1] was “intolerant”.

B1: Emgality: prophylactic agent prescribed for chronic migraine (antibody, chains of the INN, looked up, V domains shown)
VH: QVQLVQSGAEVKKPGSSVKVSCKASGYTFGNYWMQWVRQAPGQGLEWMGAIYEGTGKTVYIQKFADRVTITADKSTSTAYMELSSLRSEDTAVYYCARLSDYVSGFGYWGQGTTVTVSS
VL: DIQMTQSPSSLSASVGDRVTITCRASKDISKYLNWYQQKPGKAPKLLIYYTSGYHSGVPSRFSGSGSGTDFTLTISSLQPEDFATYYCQQGDALPPTFGGGTKVEIK
For B1, the side effects [1] was “caused unwanted side effects”, the “benefit as prophylactic agent” value [2] was “without benefit” and the “benefit for migraine prophylaxis” value [2] was “significantly improved”. The “benefit … at first visit” value [2] was “had not noticed any obvious benefit”, the “benefit for migraine, subsequent treatment rounds” value [2] was “reduced the pain somewhat, but had not reduced the frequency or duration” and the “frequency of headaches with throbbing, light and sound sensitivity” value [2] was “once or twice per week”. For the same molecule, the “migraine frequency on treatment” value [2] was 2 to 3 days/week.

B2: Ajovy: prophylactic agent tried for migraines (antibody, chains of the INN, looked up, V domains shown)
VH: EVQLVESGGGLVQPGGSLRLSCAASGFTFSNYWISWVRQAPGKGLEWVAEIRSESDASATHYAEAVKGRFTISRDNAKNSLYLQMNSLRAEDTAVYYCLAYFDYGLAIQNYWGQGTLVTVSS
VL: EIVLTQSPATLSLSPGERATLSCKASKRVTTYVSWYQQKPGQAPRLLIYGASNRYLGIPARFSGSGSGTDFTLTISSLEPEDFAVYYCSQSYNYPYTFGQGTKLEIK
With B2 the “benefit as prophylactic agent” value [2] was “without benefit”.
